Tests used:
[1] = molecular target: T1, Delta-type opioid receptor (Rattus norvegicus, UniProt P33533); assay: Binding affinity at delta opioid receptor 1 in rat brain membrane by [3H]DADLE displacement.; type: cell membranes
[2] = molecular target: Opioid receptors; mu & delta (Rattus norvegicus) (UniProt P33533+P33535); assay: Selectivity ratio (Ki value towards mu receptor compared to that of delta receptor).; type: protein assay
Mu-type opioid receptor [3] = molecular target: Mu-type opioid receptor (Rattus norvegicus, UniProt P33535); assay: Binding affinity at mu opioid receptor 1 in rat brain membrane by [3H]DAMGO displacement.; type: cell membranes
Rattus norvegicus = species: Rattus norvegicus; assay: Selectivity ratio (Ki value towards kappa receptor compared to that of delta receptor).
[4] = molecular target: T2, Kappa-type opioid receptor (Cavia porcellus, UniProt P41144); assay: Binding affinity at kappa opioid receptor 1 in guinea pig brain by [3H]U-69593 displacement.
[5] = molecular target: T2, Kappa-type opioid receptor; assay: The ability of compound to inhibit [35S][…] binding in guinea pig caudate stimulated by U69,593 (Opioid receptor kappa 1) antagonist; type: functional
Mu-type opioid receptor [6] = molecular target: Mu-type opioid receptor (Cavia porcellus, UniProt P97266); assay: The ability of compound to inhibit [35S][…] binding in guinea pig caudate stimulated by DAMGO (Opioid receptor mu 1) antagonist; type: functional
[7] = molecular target: T1, Delta-type opioid receptor; assay: Opioid receptor delta 1 binding affinity was determined by inhibition of binding of [3H]DADLE to rat brain membrane

Sequence of Mu-type opioid receptor (Cavia porcellus, UniProt P97266) (P97266 whole entry): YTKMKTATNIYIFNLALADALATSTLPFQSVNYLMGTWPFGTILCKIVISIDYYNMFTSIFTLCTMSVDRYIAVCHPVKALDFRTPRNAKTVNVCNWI
Sequence of Mu-type opioid receptor (Rattus norvegicus, UniProt P33535) (P33535 whole entry): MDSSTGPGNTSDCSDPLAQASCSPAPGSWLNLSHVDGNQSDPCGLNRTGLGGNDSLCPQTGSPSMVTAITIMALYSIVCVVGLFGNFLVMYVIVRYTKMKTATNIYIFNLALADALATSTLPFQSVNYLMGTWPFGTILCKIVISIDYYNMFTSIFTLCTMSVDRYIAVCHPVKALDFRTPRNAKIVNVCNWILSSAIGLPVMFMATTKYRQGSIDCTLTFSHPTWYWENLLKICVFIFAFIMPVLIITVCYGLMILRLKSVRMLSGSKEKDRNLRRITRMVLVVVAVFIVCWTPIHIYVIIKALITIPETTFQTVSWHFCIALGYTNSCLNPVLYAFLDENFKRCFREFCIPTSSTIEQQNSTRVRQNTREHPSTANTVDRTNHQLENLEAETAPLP
Sequence of Opioid receptors; mu & delta (Rattus norvegicus) (P33533 whole entry, looked up): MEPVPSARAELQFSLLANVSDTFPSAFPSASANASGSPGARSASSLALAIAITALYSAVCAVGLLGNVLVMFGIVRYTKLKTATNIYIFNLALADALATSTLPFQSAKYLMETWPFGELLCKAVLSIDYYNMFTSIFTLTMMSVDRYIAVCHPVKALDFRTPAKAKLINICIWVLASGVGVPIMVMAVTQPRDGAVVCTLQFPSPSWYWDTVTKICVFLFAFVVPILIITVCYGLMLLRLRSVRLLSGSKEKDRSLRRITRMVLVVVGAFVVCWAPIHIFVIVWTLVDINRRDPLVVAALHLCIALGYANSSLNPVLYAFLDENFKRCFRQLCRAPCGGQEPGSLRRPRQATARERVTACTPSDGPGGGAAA
Sequence of Opioid receptors; mu & delta (Rattus norvegicus) (P33535 whole entry, looked up): as the sequence (P33535 whole entry) above
T1 sequence (P33533 whole entry): as the sequence (P33533 whole entry, looked up) above
T2 sequence (P41144 whole entry): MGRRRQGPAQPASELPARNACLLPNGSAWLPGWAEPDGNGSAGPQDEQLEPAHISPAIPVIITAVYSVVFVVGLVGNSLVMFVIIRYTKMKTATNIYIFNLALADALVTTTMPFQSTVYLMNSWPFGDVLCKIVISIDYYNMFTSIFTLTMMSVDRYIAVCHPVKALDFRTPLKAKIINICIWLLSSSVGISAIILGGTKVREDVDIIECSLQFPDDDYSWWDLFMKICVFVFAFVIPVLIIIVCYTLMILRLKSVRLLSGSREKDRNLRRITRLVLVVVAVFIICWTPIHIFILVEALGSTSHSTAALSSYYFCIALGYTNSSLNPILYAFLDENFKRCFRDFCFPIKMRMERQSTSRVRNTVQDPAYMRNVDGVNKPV

Compound	Ki [1] [µM]	Selectivity [2]	Ki (Mu-type opioid receptor [3]) [µM]	Selectivity (Rattus norvegicus)	Ki [4] [µM]	Ki [5] [µM]	Ki (Mu-type opioid receptor [6]) [µM]	Ki [7] [µM]
C=CCO[C@@]12Cc3c(n(CC=C)c4ccccc34)[C@@H]3Oc4c(O)ccc5c4[C@@]31CCN(CC=C)[C@@H]2C5	0.0073	137	1	105	0.763			
CCO[C@@]12Cc3c(oc4ccccc34)[C@@H]3Oc4c(O)ccc5c4[C@@]31CCN(CC1CC1)[C@@H]2C5	0.00118	157	0.185	80	0.094	> 10	> 10	
C=CCN1CC[C@]23c4c5ccc(O)c4O[C@H]2c2oc4ccccc4c2C[C@@]3(OCC)[C@H]1C5	0.0012	19	0.0228	57	0.068			
C=CCN1CC[C@]23c4c5ccc(O)c4O[C@H]2c2c(c4ccccc4n2Cc2ccccc2Cl)C[C@@]3(OCc2ccccc2Cl)[C@H]1C5	0.151	8.2	1.23	4800	721			
CCO[C@@]12Cc3c([nH]c4ccccc34)[C@]3(C)Oc4c(O)ccc5c4C31CCN(CC1CC1)[C@@H]2C5	0.0044	77	0.34	30	0.134	> 10	> 10	
CC(C)CCO[C@@]12Cc3c([nH]c4ccccc34)[C@]3(C)Oc4c(O)ccc5c4[C@@]31CCN(C)[C@@H]2C5	0.0128	19	0.238	99	1.26			
C=CCN1CC[C@]23c4c5ccc(O)c4O[C@H]2c2[nH]c4ccccc4c2C[C@@]3(OCC)[C@H]1C5	0.0026	526	1.37	134	0.349	> 10	> 10	
CCO[C@@]12Cc3c([nH]c4ccccc34)[C@]3(C)Oc4c(O)ccc5c4[C@@]31CCN(CC1CCC1)[C@@H]2C5	0.0126	32	0.409	30	0.378			
CCCN1CC[C@]23c4c5ccc(O)c4O[C@H]2c2c(c4ccccc4n2C)C[C@@]3(OC)[C@H]1C5	0.0115	9.2	0.106	10	0.115			
CCCO[C@@]12Cc3c([nH]c4ccccc34)[C@]3(C)Oc4c(O)ccc5c4[C@@]31CCN(CC1CC1)[C@@H]2C5	0.0053	105	0.555	95	0.504			
CN1CC[C@]23c4c5ccc(O)c4O[C@H]2c2[nH]c4ccccc4c2C[C@@]3(O)[C@H]1C5 [OXYMORPHINDOLE]		86	0.171	198	0.395			0.002
CO[C@@]12Cc3c([nH]c4ccccc34)[C@@H]3Oc4c(O)ccc5c4[C@@]31CCN(CC1CCCCC1)[C@@H]2C5	0.37	38	14	8.8	3.25			
C=CCN1CC[C@]23c4c5ccc(O)c4O[C@H]2c2c(c4ccccc4n2C)C[C@@]3(OC)[C@H]1C5	0.00197		0.731		0.149			
CCCO[C@@]12Cc3c([nH]c4ccccc34)[C@]3(C)Oc4c(O)ccc5c4[C@@]31CCN(C)[C@@H]2C5	0.0053	5.7	0.03	105	0.556			
CCO[C@@]12Cc3c([nH]c4ccccc34)[C@]3(C)Oc4c(O)ccc5c4[C@@]31CCN(C)[C@@H]2C5	0.0039	132	0.515	186	0.725			
C=CCN1CC[C@]23c4c5ccc(O)c4O[C@H]2c2[nH]c4ccccc4c2C[C@@]3(OC)[C@H]1C5	0.0038	229	0.869	61	0.233			
CCCO[C@@]12Cc3c(n(CCC)c4ccccc34)[C@@H]3Oc4c(O)ccc5c4[C@@]31CCN(CC1CC1)[C@@H]2C5	0.00128	12	0.0148	2.4	0.0031			
CO[C@@]12Cc3c([nH]c4ccccc34)[C@]3(C)Oc4c(O)ccc5c4[C@@]31CCN(C)[C@@H]2C5	0.00395	15	0.058	387	1.53			
Oc1ccc2c3c1O[C@H]1c4[nH]c5ccccc5c4C[C@@]4(O)[C@@H](C2)N(CC2CC2)CC[C@]314 [NALTRINDOLE]	0.00081				0.0158			

From ChEMBL document CHEMBL1135665, “Synthesis and biological evaluation of 14-alkoxymorphinans. 17. Highly delta opioid receptor selective 14-alkoxy-substituted indolo- and benzofuromorphinans” (J Med Chem, 2002)
